Values after ≈ are worked out from the molar mass of the structure shown.
Legend:
[1] = system: Plasmodium falciparum; assay: Antiplasmodial activity against Plasmodium falciparum D6 infected in human RBC assessed as parasite growth inhibition measured as LDH activity after 72 hrs by plate reader analysis; assay type: functional, organism-based; conditions: Plasmodium falciparum, D6, 72 h
[2] = system: SK-OV-3; assay: Cytotoxicity against human SKOV3 cells assessed as cell growth inhibition after 48 hrs by neutral red assay; assay type: cell-based; conditions: SK-OV-3, 48 h
[3] = system: Vero; assay: Cytotoxicity against African green monkey Vero cells assessed as cell growth inhibition after 48 hrs by neutral red assay; assay type: cell-based; conditions: Chlorocebus sabaeus
[4] = system: Plasmodium falciparum; assay: Antiplasmodial activity against Plasmodium falciparum W2 infected in human RBC assessed as parasite growth inhibition measured as LDH activity after 72 hrs by plate reader analysis; assay type: functional, organism-based; conditions: Plasmodium falciparum, W2, 72 h
[5] = system: Mycobacterium tuberculosis; assay: Antitubercular activity against Mycobacterium tuberculosis H37Rv assessed as […] inhibition after 7 days by broth microdilution assay; assay type: functional; conditions: 168 h
[6] = Retention time of the compound by HPLC analysis; assay type: physicochemical
[7] = Selectivity index, ratio of IC50 for pig LLC-PK1 cells to IC50 for Plasmodium falciparum W2
[8] = system: SK-MEL; assay: Cytotoxicity against human SK-MEL cells assessed as cell growth inhibition after 48 hrs by neutral red assay; assay type: cell-based
[9] = Selectivity index, ratio of IC50 for African green monkey VERO cells to IC50 for Plasmodium falciparum W2
[10] = Selectivity index, ratio of IC50 for pig LLC-PK1 cells to IC50 for Plasmodium falciparum D6
[11] = Selectivity index, ratio of IC50 for African green monkey VERO cells to IC50 for Plasmodium falciparum D6
[12] = system: LLC-PK1; assay: Cytotoxicity against pig LLC-PK1 cells assessed as cell growth inhibition after 48 hrs by neutral red assay; assay type: cell-based; conditions: Sus scrofa, LLC-PK1, 48 h
[13] = system: BT-549; assay: Cytotoxicity against human BT549 cells assessed as cell growth inhibition after 48 hrs by neutral red assay; assay type: cell-based; conditions: BT-549, 48 h
[14] = system: KB; assay: Cytotoxicity against human KB cells assessed as cell growth inhibition after 48 hrs by neutral red assay; assay type: cell-based

**Q.** With `N#Cc1ccc(S(=O)(=O)n2cc(-c3ccnc(N)n3)c3cc(Br)ccc32)cc1` as the compound, how does the IC50 ([1]; read-out: IC50) read?
**A.** 10.3 µM

**Q.** What about the IC50 ([1]; read-out: pIC50 (converted)) of the same compound?
**A.** 10.3 µM

**Q.** And the IC50 [2]?
**A.** > 55 µM

**Q.** What about the IC50 [3] of the same compound?
**A.** > 55 µM

**Q.** And the IC50 ([4]; read-out: IC50)?
**A.** 5.2 µM

**Q.** And the IC50 ([4]; read-out: pIC50 (converted))?
**A.** 5.2 µM

**Q.** And the MIC90 [5]?
**A.** 70.6 µM (≈ 32.1 µg/mL)

**Q.** What about the Retention_time [6] of the same compound?
**A.** 7.09 min

**Q.** And the “Ratio IC50” value [7]?
**A.** >10.6

**Q.** And the IC50 [8]?
**A.** > 55 µM

**Q.** What about the “Ratio IC50” value [9] of the same compound?
**A.** >10.6

**Q.** And the “Ratio IC50” value [10]?
**A.** >5.3

**Q.** What about the “Ratio IC50” value [11] of the same compound?
**A.** >5.3

**Q.** And the IC50 [12]?
**A.** > 55 µM

**Q.** And the IC50 [13]?
**A.** > 55 µM

**Q.** And the IC50 [14]?
**A.** > 55 µM

**Q.** With `Nc1nccc(-c2cn(S(=O)(=O)c3ccc(C(F)(F)F)cc3[N+](=O)[O-])c3ccc(Br)cc23)n1` as the compound, how does the IC50 ([1]; read-out: IC50) read?
**A.** 2.56 µM

**Q.** What about the IC50 ([1]; read-out: pIC50 (converted)) of the same compound?
**A.** 2.56 µM

**Q.** What about the IC50 [2] of the same compound?
**A.** > 28 µM

**Q.** And the IC50 [3]?
**A.** > 46 µM

**Q.** And the IC50 ([4]; read-out: IC50)?
**A.** 3.41 µM

**Q.** And the IC50 ([4]; read-out: pIC50 (converted))?
**A.** 3.41 µM

**Q.** What about the MIC90 [5] of the same compound?
**A.** 118 µM (≈ 64.2 µg/mL)

**Q.** And the Retention_time [6]?
**A.** 8.26 min

**Q.** And the “Ratio IC50” value [7]?
**A.** >13.5

**Q.** What about the IC50 [8] of the same compound?
**A.** > 46 µM

**Q.** And the “Ratio IC50” value [9]?
**A.** >13.5

**Q.** What about the “Ratio IC50” value [10] of the same compound?
**A.** >18

**Q.** And the “Ratio IC50” value [11]?
**A.** >18

**Q.** What about the IC50 [12] of the same compound?
**A.** > 46 µM

**Q.** What about the IC50 [13] of the same compound?
**A.** > 46 µM

**Q.** And the IC50 [14]?
**A.** > 46 µM
